# Reference: US9187429B2, “Phenyl-tetrahydroisoquinoline derivatives” (Hoffmann-La Roche Inc., priority 2012, dated 2015)
# Tests used:
# [1] = rat CKD model; FAD286 4 weeks of treatment, spironolactone 4 and 8 weeks; cited from earlier work
# CYP11B2 [2] = target: T1, CYP11B2 (Homo sapiens (Human), UniProt P19099); conditions: patients with primary aldosteronism, oral; cited from earlier work
# CYP11B2 [3] = target: T1, CYP11B2; assay: G-402 cellular enzyme assay, human CYP11B2 (aldosterone release); assay type: cell-based; conditions: G-402 cells expressing human CYP11B2, 1 μM Deoxycorticosterone
# Procedure, shortened: (§1)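 G-402 cells stably transfected with human CYP11B2 or CYP11B1, dosed with inhibitor and 1 μM deoxycorticosterone (CYP11B2) or 1 μM deoxycortisol (CYP11B1). Aldosterone or cortisol in supernatant quantified by HTRF; EC50 from 4-parameter MMF fit of steroid level versus inhibitor concentration.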
# human CYP11B1 = human CYP11B1 (Homo sapiens (Human), UniProt P15538); assay: G-402 cellular enzyme assay, human CYP11B1 (cortisol release); assay type: cell-based; conditions: G-402 cells expressing human CYP11B1, 1 μM Deoxycortisol
# Procedure, shortened: as §1
# T1 sequence (P19099 25-503): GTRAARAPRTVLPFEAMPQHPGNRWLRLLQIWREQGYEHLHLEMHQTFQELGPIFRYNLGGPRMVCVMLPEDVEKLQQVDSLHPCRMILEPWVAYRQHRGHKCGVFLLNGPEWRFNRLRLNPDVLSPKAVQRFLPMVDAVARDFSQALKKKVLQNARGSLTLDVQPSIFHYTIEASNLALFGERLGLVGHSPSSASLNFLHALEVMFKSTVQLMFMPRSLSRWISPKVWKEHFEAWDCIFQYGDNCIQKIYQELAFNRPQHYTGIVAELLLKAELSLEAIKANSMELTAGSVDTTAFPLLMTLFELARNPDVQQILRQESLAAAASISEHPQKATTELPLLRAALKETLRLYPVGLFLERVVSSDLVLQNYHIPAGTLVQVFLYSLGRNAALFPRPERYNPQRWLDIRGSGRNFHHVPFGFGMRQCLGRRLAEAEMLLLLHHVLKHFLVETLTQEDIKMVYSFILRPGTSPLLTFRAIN
# Sequence of human CYP11B1 (P15538 25-503): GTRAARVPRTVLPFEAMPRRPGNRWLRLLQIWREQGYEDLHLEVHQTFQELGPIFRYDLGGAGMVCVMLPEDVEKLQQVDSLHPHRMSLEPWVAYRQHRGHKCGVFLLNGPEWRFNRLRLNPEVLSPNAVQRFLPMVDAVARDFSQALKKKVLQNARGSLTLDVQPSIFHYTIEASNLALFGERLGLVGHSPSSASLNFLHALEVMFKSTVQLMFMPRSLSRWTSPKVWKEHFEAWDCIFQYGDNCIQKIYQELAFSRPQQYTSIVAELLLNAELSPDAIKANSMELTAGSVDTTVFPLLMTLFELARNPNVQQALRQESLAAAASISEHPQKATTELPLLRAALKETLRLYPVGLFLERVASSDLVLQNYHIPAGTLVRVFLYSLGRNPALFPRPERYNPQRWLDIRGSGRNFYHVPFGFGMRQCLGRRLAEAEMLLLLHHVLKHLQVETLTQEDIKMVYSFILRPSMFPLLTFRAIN
EC50 (CYP11B2 [3]),EC50 (human CYP11B1),SMILES,other results
,,N#Cc1ccc(C2CCCc3cncn32)cc1 (stereo not shown) [FAD286],plasma aldosterone [1]: reduced
,,N#Cc1ccc([C@H]2CCc3cncn32)c(F)c1 [LCI699],blood pressure (CYP11B2 [2]): mildly decreased; circulating aldosterone levels (CYP11B2 [2]): significantly lower; hypokalemia (CYP11B2 [2]): corrected
118 nM,23200 nM,"CS(=O)(=O)N[C@@H]1CCCc2c(-c3ccc(C(F)(F)F)cc3F)cncc21 [Example 76, (+)-(R)—N-(4-(2-Fluoro-4-(trifluoromethyl)phenyl)-5,6,7,8-tetrahydroisoquinolin-8-yl)methanesulfonamide]",
43 nM,422 nM,"CC(=O)NC1CCCc2c(-c3ccc(C#N)cc3)cncc21 (racemic) [Example 8, (rac)-N-(4-(4-Cyanophenyl)-5,6,7,8-tetrahydroisoquinolin-8-yl)acetamide]",
82 nM,7090 nM,"CCC(=O)NC1CCCc2c(-c3ccc(C(F)(F)F)cc3)cncc21 (racemic) [Example 21, (rac)-N-(4-(4-(Trifluoromethyl)phenyl)-5,6,7,8-tetrahydroisoquinolin-8-yl)propionamide]",
51.2 nM,3540 nM,"CC(=O)N[C@@H]1CCCc2c(-c3ccc(C(F)(F)F)cc3F)cncc21 [Example 75, (+)-(R)—N-(4-(2-Fluoro-4-(trifluoromethyl)phenyl)-5,6,7,8-tetrahydroisoquinolin-8-yl)acetamide]",
31 nM,1420 nM,"CCC(=O)NC1CCCc2c(-c3ccc(Cl)cc3)cncc21 (racemic) [Example 24, (rac)-N-(4-(4-Chlorophenyl)-5,6,7,8-tetrahydroisoquinolin-8-yl)propionamide]",
22 nM,511 nM,"CCC(=O)NC1CCc2c(-c3ccc(C#N)cc3)cncc21 (racemic) [Example 17, (rac)-N-(4-(4-Cyanophenyl)-6,7-dihydro-5H-cyclopenta[c]pyridin-7-yl)propionamide]",
4.5 nM,427 nM,"OC1CCc2c(-c3ccc(C(F)(F)F)cc3F)cncc21 (racemic) [Example 80, (rac)-4-(2-Fluoro-4-(trifluoromethyl)phenyl)-6,7-dihydro-5H-cyclopenta[c]pyridin-7-ol]",
3210 nM,38300 nM,"CCC(=O)NC1CCc2c(-c3ccc(Cl)c(F)c3)cncc21 (single isomer, unassigned; (-)) [Example 56, (−)-(S or R)—N-(4-(4-Chloro-3-fluorophenyl)-6,7-dihydro-5H-cyclopenta[c]pyridin-7-yl)propionamide]",
16.4 nM,441 nM,"CCC(=O)OC1CCc2c(-c3ccc(C(F)(F)F)c(F)c3)cncc21 (racemic) [Example 92, (rac)-Propionic acid 4-(3-fluoro-4-trifluoromethyl-phenyl)-6,7-dihydro-5H-[2]pyrindin-7-yl ester]",
148 nM,2330 nM,"O=S(=O)(NC1CCc2c(-c3ccc(C(F)(F)F)cc3)cncc21)C1CC1 (racemic) [Example 94, (rac)-Cyclopropanesulfonic acid [4-(4-trifluoromethyl-phenyl)-6,7-dihydro-5H-[2]pyrindin-7-yl]-amide]",
12 nM,174 nM,"CCC(=O)NC1CCc2c(-c3ccc(C#N)cc3)cncc21 (single isomer, unassigned; (+)) [Example 19, (+)-(R or S)—N-(4-(4-Cyanophenyl)-6,7-dihydro-5H-cyclopenta[c]pyridin-7-yl)propionamide]",
16 nM,73 nM,"Cc1ccc(C2(O)CCCc3c(-c4ccc(C#N)cc4)cncc32)cc1C (racemic) [Example 14, (rac)-4-(8-(3,4-Dimethylphenyl)-8-hydroxy-5,6,7,8-tetrahydroisoquinolin-4-yl)benzonitrile]",
964 nM,7830 nM,"CCC(=O)N[C@@H]1CCCc2c(-c3ccc(C(F)(F)F)cc3C3CC3)cncc21 [Example 107, (R)—N-(4-(2-Cyclopropyl-4-(trifluoromethyl)phenyl)-5,6,7,8-tetrahydroisoquinolin-8-yl)propionamide]",
242 nM,3020 nM,"CCS(=O)(=O)NC1CCc2c(-c3ccc(C(F)(F)F)c(F)c3)cncc21 (racemic) [Example 71, (rac)-N-(4-(3-Fluoro-4-(trifluoromethyl)phenyl)-6,7-dihydro-5H-cyclopenta[c]pyridin-7-yl)ethanesulfonamide]",
86.3 nM,364 nM,"NC1CCc2c(-c3ccc(C(F)(F)F)cc3)cncc21 (racemic) [Example 93, (rac)-4-(4-Trifluoromethyl-phenyl)-6,7-dihydro-5H-[2]pyrindin-7-ylamine]",
373 nM,3870 nM,"CCCS(=O)(=O)NC1CCc2c(-c3ccc(C(F)(F)F)cc3)cncc21 (racemic) [Example 96, (rac)-Propane-1-sulfonic acid [4-(4-trifluoromethyl-phenyl)-6,7-dihydro-5H-[2]pyrindin-7-yl]-amide]",
1260 nM,31400 nM,"CCC(=O)NC1CCCc2c(-c3ccc(Cl)c(F)c3)cncc21 (single isomer, unassigned; (-)) [Example 37, (−)-(S or R)—N-(4-(4-Chloro-3-fluorophenyl)-5,6,7,8-tetrahydroisoquinolin-8-yl)propionamide]",
14.6 nM,710 nM,"OC1CCCc2c(-c3ccc(C(F)(F)F)cc3)cncc21 (racemic) [Example 104, (rac)-4-(4-(Trifluoromethyl)phenyl)-5,6,7,8-tetrahydroisoquinolin-8-ol]",
67 nM,658 nM,"CCOC(=O)NC1CCCc2c(-c3ccc(C#N)cc3)cncc21 (racemic) [Example 10, (rac)-Ethyl 4-(4-cyanophenyl)-5,6,7,8-tetrahydroisoquinolin-8-ylcarbamate]",
12 nM,184 nM,"CCC(=O)NC1CCc2c(-c3ccc(Cl)c(F)c3)cncc21 (racemic) [Example 55, (rac)-N-(4-(4-Chloro-3-fluorophenyl)-6,7-dihydro-5H-cyclopenta[c]pyridin-7-yl)propionamide]",
23.3 nM,276 nM,"CC(=O)N[C@@H]1CCCc2c(-c3ccc(C#N)cc3)cncc21 [Example 78, (+)-(R)—N-(4-(4-Cyanophenyl)-5,6,7,8-tetrahydroisoquinolin-8-yl)acetamide]",
14 nM,1010 nM,"CCC(=O)NC1CCCc2c(-c3ccc(Cl)c(F)c3)cncc21 (racemic) [Example 36, (rac)-N-(4-(4-Chloro-3-fluorophenyl)-5,6,7,8-tetrahydroisoquinolin-8-yl)propionamide]",
,,CC(=O)S[C@@H]1CC2=CC(=O)CC[C@]2(C)[C@H]2CC[C@@]3(C)[C@@H](CC[C@@]34CCC(=O)O4)[C@H]12 [spironolactone],plasma aldosterone [1]: increased
1.1 nM,40.8 nM,"NC(=O)COC1CCc2c(-c3ccc(C(F)(F)F)cc3)cncc21 (racemic) [Example 102, (rac)-2-(4-(4-(Trifluoromethyl)phenyl)-6,7-dihydro-5H-cyclopenta[c]pyridin-7-yloxy)acetamide]",
5.2 nM,71 nM,"OC1CCc2c(-c3ccc(C(F)(F)F)c(F)c3)cncc21 (racemic) [Example 82, (rac)-4-(3-Fluoro-4-(trifluoromethyl)phenyl)-6,7-dihydro-5H-cyclopenta[c]pyridin-7-ol]",
28 nM,1500 nM,"CCC(=O)NC1CCCc2c(-c3ccc(Cl)cc3F)cncc21 (racemic) [Example 30, (rac)-N-(4-(4-Chloro-2-fluorophenyl)-5,6,7,8-tetrahydroisoquinolin-8-yl)propionamide]",
